Measurements taken from ChEMBL document CHEMBL1133417, “N-[[1-(2-phenylethyl)pyrrolidin-2-yl]methyl]cyclohexanecarboxamides as selective 5-HT1A receptor agonists” (Bioorg Med Chem Lett, 2000).

Experiments:
[1] = biological target: T1, Serotonin 2 (5-HT2) receptor (Rattus norvegicus, UniProt P30994+P08909+P14842); assay: Binding affinity for 5-hydroxytryptamine 2 receptor from striata of male Wistar rats by displacement of [3H]ketanserin; type: protein assay
D(2) dopamine receptor [2] = biological target: T2, D(2) dopamine receptor (Homo sapiens, UniProt P14416); assay: Inhibitory concentration against binding of Dopamine receptor D2 by displacement of [3H]spiperone
[3] = biological target: T3, 5-hydroxytryptamine receptor 1A (Rattus norvegicus, UniProt P19327); assay: Displacement of [3H]8-OH-DPAT from rat striata 5-hydroxytryptamine 1A receptor
T3 sequence (P19327 whole entry): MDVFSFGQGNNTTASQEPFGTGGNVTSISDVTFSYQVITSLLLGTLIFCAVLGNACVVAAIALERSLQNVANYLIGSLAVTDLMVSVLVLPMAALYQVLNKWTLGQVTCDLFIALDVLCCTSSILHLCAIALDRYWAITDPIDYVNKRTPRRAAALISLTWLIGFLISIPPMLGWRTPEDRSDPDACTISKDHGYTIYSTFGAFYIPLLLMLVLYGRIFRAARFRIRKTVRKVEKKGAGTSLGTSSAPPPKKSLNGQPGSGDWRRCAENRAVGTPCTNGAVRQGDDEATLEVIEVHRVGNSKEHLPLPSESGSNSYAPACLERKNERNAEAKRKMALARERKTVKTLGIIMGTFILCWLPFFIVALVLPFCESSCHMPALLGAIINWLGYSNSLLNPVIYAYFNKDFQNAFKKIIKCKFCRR

[4] = biological target: T1, Serotonin 2 (5-HT2) receptor; assay: Inhibitory concentration against 5-hydroxytryptamine 2 receptor from striata of male Wistar rats by displacement of [3H]-ketanserin; type: protein assay
D(2) dopamine receptor [5] = biological target: T2, D(2) dopamine receptor; assay: Binding affinity for Dopamine receptor D2 by displacement of [3H]-spiperone
[6] = biological target: T3, 5-hydroxytryptamine receptor 1A; assay: Inhibitory concentration against binding of 5-hydroxytryptamine 1A receptor from striata of male Wistar rats by displacement of [3H]8-OH-DPAT
[7] = biological target: T1, Serotonin 2 (5-HT2) receptor; assay: Inhibitory concentration against binding of 5-hydroxytryptamine 2 receptor from striata of male Wistar rats by displacement of [3H]-ketanserin; type: protein assay

T2 sequence (P14416 whole entry): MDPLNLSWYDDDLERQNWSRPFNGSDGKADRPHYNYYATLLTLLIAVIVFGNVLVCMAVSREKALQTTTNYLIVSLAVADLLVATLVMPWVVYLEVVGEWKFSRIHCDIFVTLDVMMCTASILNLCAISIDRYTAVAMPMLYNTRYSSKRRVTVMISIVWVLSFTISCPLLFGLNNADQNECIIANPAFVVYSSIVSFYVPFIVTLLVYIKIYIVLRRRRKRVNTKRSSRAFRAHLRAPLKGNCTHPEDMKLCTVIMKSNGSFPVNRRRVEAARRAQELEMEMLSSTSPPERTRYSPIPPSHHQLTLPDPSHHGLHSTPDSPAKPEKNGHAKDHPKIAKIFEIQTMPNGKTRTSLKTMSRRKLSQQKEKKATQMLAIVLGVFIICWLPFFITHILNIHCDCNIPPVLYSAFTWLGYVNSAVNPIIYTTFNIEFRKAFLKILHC

Compound	Ki [1]	IC50 (D(2) dopamine receptor [2])	Ki [3]	Ki (D(2) dopamine receptor [5])	also measured
O=C(NC[C@@H]1CCCN1CCc1ccccc1)C1CCCCC1	240 nM l-1	> 1000 nM	0.49 nM	–	–
CSc1cccc(C(=O)NC[C@@H]2CCCN2CCc2ccccc2)c1	160 nM l-1	> 1000 nM	4.3 nM	–	–
CCCN(CCC)C1CCc2cccc(O)c2C1 (stereo unspecified) [8-OH-DPAT]	–	–	–	–	IC50 [4]: > 1000 nM l-1
CSc1cc2c(c(C(=O)NC[C@H]3CCCN3CCc3ccccc3)c1)OCC2	430 nM l-1	–	100 nM	6.7 nM	–
O=C(NC[C@@H]1CCCN1CCc1ccccc1)c1ccccc1	430 nM l-1	> 1000 nM	4.6 nM	–	–
O=C(c1ccc(F)cc1)C1CCN(CCn2c(=O)[nH]c3ccccc3c2=O)CC1 [KETANSERIN]	–	–	–	240 nM	IC50 [6]: > 1000 nM
CN1CCOc2c(C(=O)NC[C@H]3CCCN3CCc3ccccc3)cc(Cl)cc21	–	–	–	–	IC50 [7]: > 1000 nM l-1
CN1CCOc2c(C(=O)NC[C@@H]3CCCN3CCc3ccccc3)cc(Cl)cc21	–	–	–	–	Ki ([1]; read-out: Ki): 280 nM
CSc1cccc(C(=O)NC[C@H]2CCCN2CCc2ccccc2)c1	–	> 1000 nM	110 nM	–	IC50 [7]: > 1000 nM l-1
O=C(NC[C@H]1CCCN1CCc1ccccc1)C1CCCCC1	–	> 1000 nM	190 nM	–	IC50 [4]: > 1000 nM l-1

Continued, in another order:

Ki [1]	IC50 (D(2) dopamine receptor [2])	Ki [3]	Ki (D(2) dopamine receptor [5])	Compound	also measured
–	–	–	630 nM	CCCCN1CCC[C@@H]1CNC(=O)c1cc(Cl)cc2c1OCCN2C	Ki ([1]; read-out: Ki): 86 nM
–	–	–	12 nM	CCCCN1CCC[C@H]1CNC(=O)c1cc(Cl)cc2c1OCCN2C	Ki ([1]; read-out: Ki): 300 nM
–	> 1000 nM	–	–	O=C(NC[C@H]1CCCN1CCc1ccccc1)c1ccccc1	IC50 [6]: > 1000 nM; IC50 [4]: > 1000 nM l-1
170 nM l-1	–	24 nM	460 nM	COc1ccc(SC)cc1C(=O)NC[C@@H]1CCCN1CCc1ccccc1	–
660 nM l-1	–	21 nM	120 nM	COc1cc2c(c(C(=O)NC[C@@H]3CCCN3CCc3ccccc3)c1)OCC2	–
